Six compounds from patent US10717699B1, “Crotonyl alcohol cassic acid ester with antibacterial activity and a method of preparing the same” (SOUTHWEST UNIVERSITY, priority 2020, dated 2020) can be followed below.

Common to all, as to assay type: cell-based
Experiment [1] concerns methicillin-resistant Staphylococcus aureus MRSA 18-222, 18-575. Briefly: MIC by microbroth dilution method, MRSA strains. The following applies: for Minimum bacteriostatic concentration: 37° C., 20-22 hours. The source says: (§1) The minimal inhibitory concentration (MIC) of the compounds as determined by microbroth dilution method with gentamicin, cefazolin sodium and ceftriaxone sodium as positive control.
(§2) The experimental strains included methicillin-resistant Gram-positive bacteria: methicillin-resistant Staphylococcus aureus MRSA 18-222, 18-575; multiple drug-resistant […] bacteria: vancomycin-resistant enterococci VRE 18-80,18-94, multidrug-resistant Pseudomonas aeruginosa MDR-PA 18-1774,18-202, carbapenem-resistant Acinetobacter baumannii CR-AB 18-183,18-560. All the experimental strains were donated by Huashan Hospital affiliated to Fudan University (Institute of antibiotics, Fudan University) and used after routine identification.
(§3) Preparation of MHB medium: 20.0 g MHB medium was added to 1 L distilled water, boiled until completely dissolved, packed in conical bottles and sterilized at 121° C. for 15 min.
(§4) The experimental strain was cultured to the logarithmic growth phase: under aseptic condition, the experimental strain was inoculated into 100 mL MHB medium and incubated in a constant temperature and humidity incubator at 37° C. for 20-22 hours.
(§5) Preparation of storage solution: weigh the sample to be tested, dissolve it with 1% DMSO solution, prepare a storage solution with a concentration of 2560 μg/mL, weigh a positive reference substance, dissolve it with aseptic distilled water, and configure a storage solution with a concentration of 2560 μg/mL.
(§6) Preparation of bacterial suspension: under aseptic condition, the experimental strains cultured to logarithmic growth phase were adjusted to 0.5 MCF turbidity standard with MHB medium and diluted according to 1:10, and the bacterial suspension with concentration of 10^6 CFU/mL was prepared for standby.
(§7) Dilution of storage solution and inoculation of experimental strain: under aseptic condition, the storage solution was diluted to 256 μg/mL solution. Take a sterile 96-well plate, add 200 μL MHB medium to the 12th well, and add 100 μL MHB medium to each well. Add 100 μL of positive control solution to the first well, mix well, and suck 100 μL from it and discard. Add 100 μL of the compound sample solution to the second well, mix well, and then pipette 100 μL to the third well. After mixing, pipette 100 μL to the fourth well, and dilute to the 11th well in this way. Finally, 100 μL was pipetted from the 11th well and discarded. The 12th hole was the growth control without drugs. So far, the concentration of the positive reference substance is 128 μg/mL, the concentrations of the sample solution are 128, […], 8, 4, 2, 1, 0.5, 0.25 μg/mL respectively. Then, 10μL of the prepared bacterial suspension is added to each well, so that the final concentration of the bacterial liquid in each well is 5×10^5 CFU/mL.
(§8) Incubation: Cover the 96-well plate inoculated with the experimental strains, and incubate in a constant temperature and humidity box at 37° C. for 20-22 hours.
(Dilution methods test growth across graded concentrations, often in twofold steps.)

Experiment [2] has as its system vancomycin-resistant enterococci VRE 18-80,18-94. Briefly: MIC by microbroth dilution method, VRE strains. As to conditions: 37° C., 20-22 hours.
From the text: as §1, §2, §3, §4, §5, §6, §7, §8

Experiment [3] relates to multidrug-resistant Pseudomonas aeruginosa MDR-PA 18-1774,18-202. Briefly: MIC by microbroth dilution method, MDR-PA strains. The following applies: 37° C., 20-22 hours.
From the text: as §1, §2, §3, §4, §5, §6, §7, §8

The test system of experiment [4] is carbapenem-resistant Acinetobacter baumannii CR-AB 18-183,18-560. Briefly: MIC by microbroth dilution method, CR-AB strains. As to conditions: 37° C., 20-22 hours.
From the text: as §1, §2, §3, §4, §5, §6, §7, §8

In experiment [5] the test system is drug-resistant bacteria. Briefly: Antibacterial activity test, summary over all experimental strains. As to conditions: summary of FIG. 1-6 and Table 1.
From the text: as §1, §2, §3
The experimental strain was cultured to the logarithmic growth phase: under aseptic condition, the experimental strain was inoculated into 100 mL MHB medium and incubated in a constant temperature and humidity incubator at 37° C. for 20-22 hours. […]

In brackets after ≈: the same amount, converted by molar mass.

On to `O=C(O)c1cc(O)c2c(c1)C(=O)c1cccc(O)c1C2=O` [Cassic acid], for which the Minimum bacteriostatic concentration in experiment [1] (strain MRSA 18-222), in experiment [1] (strain MRSA 18-575), in experiment [2] (strain VRE 18-80), in experiment [2] (strain VRE 18-94), in experiment [3] (strain MDR-PA 18-174) and in experiment [3] (strain MDR-PA 18-202) was more than 128 µg/mL in each case. The Minimum bacteriostatic concentration in experiment [4] (strain CR-AB 18-183) and in experiment [4] (strain CR-AB 18-560) was more than 128 µg/mL in each case. Moreover, the “inhibitory effect on drug-resistant bacteria” value in experiment [5] is on record as “no inhibitory effect”.

`CO/N=C(\C(=O)N[C@@H]1C(=O)N2C(C(=O)O)=C(CSc3nc(=O)c(=O)[nH]n3C)CS[C@H]12)c1csc(N)n1` [Ceftriaxone sodium, ceftriaxone sodium]: the Minimum bacteriostatic concentration in experiment [1] (strain MRSA 18-222) was more than 128 µg/mL; in experiment [1] (strain MRSA 18-575) it was more than 128 µg/mL; in experiment [2] (strain VRE 18-80), 8 µg/mL; in experiment [2] (strain VRE 18-94) it was more than 128 µg/mL; in experiment [3] (strain MDR-PA 18-174) it was 128 µg/mL; in experiment [3] (strain MDR-PA 18-202), 16 µg/mL. In addition, the Minimum bacteriostatic concentration in experiment [4] (strain CR-AB 18-183) and in experiment [4] (strain CR-AB 18-560) was more than 128 µg/mL throughout.

On to gentamicin, for which the Minimum bacteriostatic concentration in experiment [1] (strain MRSA 18-222) is 128 µg/mL; in experiment [1] (strain MRSA 18-575) it was 2 µg/mL; in experiment [2] (strain VRE 18-80) it was 0.0625 µg/mL; in experiment [2] (strain VRE 18-94), more than 128 µg/mL; in experiment [3] (strain MDR-PA 18-174), 0.0625 µg/mL; in experiment [3] (strain MDR-PA 18-202), 0.0625 µg/mL. Also, the Minimum bacteriostatic concentration in experiment [4] (strain CR-AB 18-183) and in experiment [4] (strain CR-AB 18-560) was more than 128 µg/mL in each case.

As to `CC=CCO` [Crotonyl alcohol, 2-butenol], the Minimum bacteriostatic concentration in experiment [1] (strain MRSA 18-222), in experiment [1] (strain MRSA 18-575), in experiment [2] (strain VRE 18-80), in experiment [2] (strain VRE 18-94), in experiment [3] (strain MDR-PA 18-174) and in experiment [3] (strain MDR-PA 18-202) was more than 128 µg/mL in each case. The Minimum bacteriostatic concentration in experiment [4] (strain CR-AB 18-183) and in experiment [4] (strain CR-AB 18-560) was more than 128 µg/mL in each case. The “inhibitory effect on drug-resistant bacteria” value in experiment [5] was “no inhibitory effect”.

Consider `C/C=C/COC(=O)c1cc(O)c2c(c1)C(=O)c1cccc(O)c1C2=O` [Crotonyl alcohol cassic acid ester, (E)-but-2-en-1-yl 4,5-dihydroxy-9,10-dioxo-9,10-dihydroanthracene-2-carboxylate], for which the MIC in experiment [1] (Staphylococcus aureus, drug-resistant Gram-positive bacteria MRSA, strain not given) was found to be 4 µg/mL (≈ 11.8 µM). Also, the Minimum bacteriostatic concentration was 4 µg/mL in experiment [1] (strain MRSA 18-222); 4 µg/mL in experiment [1] (strain MRSA 18-575); more than 128 µg/mL in experiment [2] (strain VRE 18-80); more than 128 µg/mL in experiment [2] (strain VRE 18-94); more than 128 µg/mL in experiment [3] (strain MDR-PA 18-174); more than 128 µg/mL in experiment [3] (strain MDR-PA 18-202). The Minimum bacteriostatic concentration in experiment [4] (strain CR-AB 18-183) and in experiment [4] (strain CR-AB 18-560) was more than 128 µg/mL each time.

For `Cc1nnc(SCC2=C(C(=O)O)N3C(=O)[C@@H](NC(=O)Cn4cnnn4)[C@H]3SC2)s1` [Cefazolin sodium, cefazolin sodium], the Minimum bacteriostatic concentration in experiment [1] (strain MRSA 18-222) is more than 128 µg/mL; in experiment [1] (strain MRSA 18-575) it was more than 128 µg/mL; in experiment [2] (strain VRE 18-80), 32 µg/mL; in experiment [2] (strain VRE 18-94) it was more than 128 µg/mL; in experiment [3] (strain MDR-PA 18-174) it was 8 µg/mL; in experiment [3] (strain MDR-PA 18-202), 128 µg/mL. Also, the Minimum bacteriostatic concentration in experiment [4] (strain CR-AB 18-183) and in experiment [4] (strain CR-AB 18-560) was more than 128 µg/mL in each case.

For orientation: MIC means the smallest concentration in the dilution series that meets the test's criterion for growth inhibition. A low value points to a more susceptible organism.
